Assay results from publication PMC8872763 (Proceedings of the National Academy of Sciences of the …, 2022).

Biological target: glucose oxidase (GOX) (Aspergillus niger, UniProt P13006)
Experiment: time-resolved fluorescence of protein-bound flavin
Type: binding
Conditions: 390-nm excitation

glucose oxidase (GOX), sequence (P13006 23-605 limits assumed): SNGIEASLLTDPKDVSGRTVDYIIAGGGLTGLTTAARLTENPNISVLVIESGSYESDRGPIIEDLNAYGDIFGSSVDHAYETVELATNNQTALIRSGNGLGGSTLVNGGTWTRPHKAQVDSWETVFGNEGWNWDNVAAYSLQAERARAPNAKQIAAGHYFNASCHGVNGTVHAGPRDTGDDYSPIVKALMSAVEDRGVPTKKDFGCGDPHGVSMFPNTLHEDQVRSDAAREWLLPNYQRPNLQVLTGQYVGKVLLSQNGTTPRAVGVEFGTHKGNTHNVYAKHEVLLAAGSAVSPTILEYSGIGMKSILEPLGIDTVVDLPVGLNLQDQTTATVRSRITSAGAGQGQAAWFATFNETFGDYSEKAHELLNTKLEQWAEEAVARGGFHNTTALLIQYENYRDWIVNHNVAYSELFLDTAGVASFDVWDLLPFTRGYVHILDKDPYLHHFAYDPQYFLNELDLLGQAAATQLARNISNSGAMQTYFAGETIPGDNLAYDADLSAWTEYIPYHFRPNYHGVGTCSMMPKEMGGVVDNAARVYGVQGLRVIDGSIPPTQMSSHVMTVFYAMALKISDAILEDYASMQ

Compound | time-resolved fluorescence of protein-bound flavin (Kerr gate)
Cc1cc2c(cc1C)N(C[C@H](O)[C@H](O)[C@H](O)COP(=O)(O)OP(=O)(O)OC[C@H]1O[C@@H](n3cnc4c(N)ncnc43)[C@H](O)[C@@H]1O)c1[nH]c(=O)[nH]c(=O)c1N2 [FADH^−] | time-resolved fluorescence of FADH^− in GOX exhibits monophasic decay
Cc1cc2nc3c(=O)[nH]c(=O)nc-3n(C[C@H](O)[C@H](O)[C@H](O)COP(=O)(O)OP(=O)(O)OC[C@H]3O[C@@H](n4cnc5c(N)ncnc54)[C@H](O)[C@@H]3O)c2cc1C [FADox] | The fluorescence decays of FADox and FADH^− in GOX measured under the same experimental conditions
